Measurements from ChEMBL document CHEMBL4330132, “5-Keto-3-cyano-2,4-diaminothiophenes as selective maternal embryonic leucine zipper kinase inhibitors” (Bioorg Med Chem Lett, 2019).

Columns and labels:
[1] = molecular target: MAP kinase-activated protein kinase 5 (Homo sapiens) (UniProt Q8IW41); test: Binding affinity to wild-type human partial length MAPKAPK5 (M1 to D322 residues) expressed in mammalian expression system assessed as residual binding level at 1 uM by Kinomescan method relative to control
[2] = molecular target: Phosphatidylinositol 5-phosphate 4-kinase type-2 gamma (Homo sapiens) (UniProt Q8TBX8); test: Binding affinity to wild-type human partial length PIP5K2C (M1 to A421 residues) expressed in mammalian expression system assessed as residual binding level at 1 uM by Kinomescan method relative to control
[3] = molecular target: Mitogen-activated protein kinase kinase kinase kinase 4 (Homo sapiens) (UniProt O95819); test: Binding affinity to wild-type human partial length MAP4K4 (M1 to R310 residues) expressed in bacterial expression system assessed as residual binding level at 1 uM by Kinomescan method relative to control
[4] = test system: Proto-oncogene tyrosine-protein kinase receptor Ret (Homo sapiens), P07949 [V804M]; test: Binding affinity to human partial length RET V804M mutant (E713 to D1014 residues) expressed in bacterial expression system assessed as residual binding level at 1 uM by Kinomescan method relative to control
[5] = molecular target: Macrophage-stimulating protein receptor (Homo sapiens) (UniProt Q04912); test: Binding affinity to wild-type human partial length MST1R (I1057 to L1363 residues) expressed in bacterial expression system assessed as residual binding level at 1 uM by Kinomescan method relative to control
[6] = molecular target: Ribosomal protein S6 kinase alpha-1 (Homo sapiens) (UniProt Q15418); test: Binding affinity to wild-type human partial length N-terminal RSK1 Kinase domain 1 (M1 to E388 residues) expressed in bacterial expression system assessed as residual binding level at 1 uM by Kinomescan method relative to control
[7] = molecular target: Receptor-type tyrosine-protein kinase FLT3 (Homo sapiens) (UniProt P36888); test: Binding affinity to wild-type human partial length FLT3 (V592 to Y969 residues) expressed in bacterial expression system assessed as residual binding level at 1 uM by Kinomescan method relative to control
[8] = molecular target: Ribosomal protein S6 kinase alpha-3 (Homo sapiens) (UniProt P51812); test: Binding affinity to wild-type human partial length N-terminal RSK2 kinase domain 1 (M1 to D394 residues) expressed in mammalian expression system assessed as residual binding level at 1 uM by Kinomescan method relative to control
[9] = test system: Tyrosine-protein kinase ABL1 (Homo sapiens), P00519 [Y253F]; test: Binding affinity to human phosphorylated ABL1 Y253F mutant (S229 to K512 residues) expressed in mammalian expression system assessed as residual binding level at 1 uM by Kinomescan method relative to control
[10] = molecular target: Cyclin-dependent kinase 9 (Homo sapiens) (UniProt P50750); test: Binding affinity to wild-type human full length CDK9 (M1 to F372 residues) expressed in bacterial expression system assessed as residual binding level at 1 uM by Kinomescan method relative to control
[11] = molecular target: SRSF protein kinase 1 (Homo sapiens) (UniProt Q96SB4); test: Binding affinity to wild-type human full length SRPK1 (M1 to S655 residues) expressed in bacterial expression system assessed as residual binding level at 1 uM by Kinomescan method relative to control
[12] = molecular target: Ephrin type-B receptor 2 (Homo sapiens) (UniProt P29323); test: Binding affinity to wild-type human partial length EPHB2 (I597 to L902 residues) expressed in bacterial expression system assessed as residual binding level at 1 uM by Kinomescan method relative to control
[13] = molecular target: Phosphatidylinositol 4-phosphate 3-kinase C2 domain-containing subunit beta (Homo sapiens) (UniProt O00750); test: Binding affinity to wild-type human partial length PIK3C2B (M1 to L1634 residues) expressed in mammalian expression system assessed as residual binding level at 1 uM by Kinomescan method relative to control
[14] = molecular target: Cyclin-dependent kinase-like 2 (Homo sapiens) (UniProt Q92772); test: Binding affinity to wild-type human partial length CDKL2 (M1 to D327 residues) expressed in bacterial expression system assessed as residual binding level at 1 uM by Kinomescan method relative to control
[15] = test system: Tyrosine-protein kinase ABL1 (Homo sapiens), P00519 [Q252H]; test: Binding affinity to human phosphorylated ABL1 Q252H mutant expressed in mammalian expression system assessed as residual binding level at 1 uM by Kinomescan method relative to control
[16] = molecular target: Ephrin type-A receptor 3 (Homo sapiens) (UniProt P29320); test: Binding affinity to wild-type human partial length EPHA3 (D604 to K889 residues) expressed in bacterial expression system assessed as residual binding level at 1 uM by Kinomescan method relative to control
[17] = molecular target: Cyclin-dependent kinase 17 (Homo sapiens) (UniProt Q00537); test: Binding affinity to wild-type human full length PCTK2 (M1 to F523 residues) expressed in bacterial expression system assessed as residual binding level at 1 uM by Kinomescan method relative to control
[18] = molecular target: Calcium/calmodulin-dependent protein kinase type 1G (Homo sapiens) (UniProt Q96NX5); test: Binding affinity to wild-type human partial length CAMK1G (M1 to A342 residues) expressed in bacterial expression system assessed as residual binding level at 1 uM by Kinomescan method relative to control
[19] = molecular target: Casein kinase I isoform gamma-3 (Homo sapiens) (UniProt Q9Y6M4); test: Binding affinity to wild-type human full length CSNK1G3 (M1 to K447 residues) expressed in bacterial expression system assessed as residual binding level at 1 uM by Kinomescan method relative to control
[20] = molecular target: Epidermal growth factor receptor (Homo sapiens) (UniProt P00533); test: Binding affinity to wild-type human partial length EGFR (R669 to V1011 residues) expressed in bacterial expression system assessed as residual binding level at 1 uM by Kinomescan method relative to control
[21] = molecular target: Mitogen-activated protein kinase kinase kinase 4 (Homo sapiens) (UniProt Q9Y6R4); test: Binding affinity to wild-type human partial length MAP3K4 (G1319 to E1608 residues) expressed in bacterial expression system assessed as residual binding level at 1 uM by Kinomescan method relative to control
[22] = test system: Tyrosine-protein kinase ABL1 (Homo sapiens), P00519 [H396P]; test: Binding affinity to human phosphorylated ABL1 H396P mutant (S229 to K512 residues) expressed in mammalian expression system assessed as residual binding level at 1 uM by Kinomescan method relative to control
[23] = molecular target: Mitogen-activated protein kinase kinase kinase 12 (Homo sapiens) (UniProt Q12852); test: Binding affinity to wild-type human full length DLK (M1 to P859 residues) expressed in mammalian expression system assessed as residual binding level at 1 uM by Kinomescan method relative to control
[24] = test system: Tyrosine-protein kinase ABL1 (Homo sapiens), P00519 [T315I]; test: Binding affinity to human phosphorylated ABL1 T315I mutant (S229 to K512 residues) expressed in mammalian expression system assessed as residual binding level at 1 uM by Kinomescan method relative to control

Chain of Mitogen-activated protein kinase kinase kinase 12 (Homo sapiens) (Q12852 whole entry, looked up, the tested form may be a part): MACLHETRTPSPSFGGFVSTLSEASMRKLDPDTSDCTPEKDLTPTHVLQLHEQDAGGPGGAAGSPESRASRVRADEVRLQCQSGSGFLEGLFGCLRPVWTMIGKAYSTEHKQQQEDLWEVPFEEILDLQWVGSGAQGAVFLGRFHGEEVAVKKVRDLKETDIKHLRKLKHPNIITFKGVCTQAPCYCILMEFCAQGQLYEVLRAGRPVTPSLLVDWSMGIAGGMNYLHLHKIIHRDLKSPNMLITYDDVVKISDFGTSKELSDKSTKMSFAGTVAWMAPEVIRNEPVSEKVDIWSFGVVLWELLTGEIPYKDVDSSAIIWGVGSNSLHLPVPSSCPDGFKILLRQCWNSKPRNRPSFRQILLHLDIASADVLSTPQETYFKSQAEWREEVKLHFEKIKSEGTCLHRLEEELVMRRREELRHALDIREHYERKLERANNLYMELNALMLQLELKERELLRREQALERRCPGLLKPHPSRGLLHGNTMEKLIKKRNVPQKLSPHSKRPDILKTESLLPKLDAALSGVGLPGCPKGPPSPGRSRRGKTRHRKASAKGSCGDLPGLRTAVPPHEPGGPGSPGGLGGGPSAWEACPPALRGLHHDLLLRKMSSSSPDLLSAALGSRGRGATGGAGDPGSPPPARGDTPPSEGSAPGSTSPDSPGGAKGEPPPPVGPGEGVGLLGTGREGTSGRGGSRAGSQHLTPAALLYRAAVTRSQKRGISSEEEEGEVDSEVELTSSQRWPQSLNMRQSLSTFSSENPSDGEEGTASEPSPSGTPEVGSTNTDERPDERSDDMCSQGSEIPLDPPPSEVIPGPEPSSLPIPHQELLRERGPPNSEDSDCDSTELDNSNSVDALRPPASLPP
Chain of Proto-oncogene tyrosine-protein kinase receptor Ret (Homo sapiens), P07949 [V804M] (P07949 whole entry V804M, the tested form may be a part): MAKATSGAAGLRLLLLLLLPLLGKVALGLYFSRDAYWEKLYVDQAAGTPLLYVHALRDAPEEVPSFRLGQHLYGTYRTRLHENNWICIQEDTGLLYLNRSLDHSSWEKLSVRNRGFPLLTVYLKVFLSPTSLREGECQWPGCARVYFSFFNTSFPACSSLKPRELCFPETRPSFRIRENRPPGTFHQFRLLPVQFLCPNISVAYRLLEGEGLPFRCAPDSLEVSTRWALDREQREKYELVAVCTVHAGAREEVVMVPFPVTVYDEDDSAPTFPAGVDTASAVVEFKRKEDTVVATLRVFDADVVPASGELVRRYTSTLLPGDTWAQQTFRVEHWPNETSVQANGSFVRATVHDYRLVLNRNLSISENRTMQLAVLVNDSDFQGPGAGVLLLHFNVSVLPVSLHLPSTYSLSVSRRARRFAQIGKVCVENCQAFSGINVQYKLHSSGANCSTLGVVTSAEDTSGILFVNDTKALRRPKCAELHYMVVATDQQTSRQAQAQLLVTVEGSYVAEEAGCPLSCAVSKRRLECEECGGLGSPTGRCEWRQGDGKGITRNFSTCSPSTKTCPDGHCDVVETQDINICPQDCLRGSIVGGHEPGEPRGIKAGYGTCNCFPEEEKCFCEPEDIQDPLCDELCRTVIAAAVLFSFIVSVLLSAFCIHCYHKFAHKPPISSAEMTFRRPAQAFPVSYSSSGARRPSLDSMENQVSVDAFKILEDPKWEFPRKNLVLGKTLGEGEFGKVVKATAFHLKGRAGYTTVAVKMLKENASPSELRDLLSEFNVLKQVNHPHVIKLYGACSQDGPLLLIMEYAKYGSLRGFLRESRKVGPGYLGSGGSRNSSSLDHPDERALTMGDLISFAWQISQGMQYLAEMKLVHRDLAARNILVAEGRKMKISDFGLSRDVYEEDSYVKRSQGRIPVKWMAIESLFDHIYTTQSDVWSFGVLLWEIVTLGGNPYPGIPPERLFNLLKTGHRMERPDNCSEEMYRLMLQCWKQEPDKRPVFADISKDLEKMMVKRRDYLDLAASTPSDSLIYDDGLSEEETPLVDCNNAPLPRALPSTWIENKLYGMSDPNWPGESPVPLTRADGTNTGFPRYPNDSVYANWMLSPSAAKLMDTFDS
Chain of Cyclin-dependent kinase-like 2 (Homo sapiens) (Q92772 whole entry, the tested form may be a part): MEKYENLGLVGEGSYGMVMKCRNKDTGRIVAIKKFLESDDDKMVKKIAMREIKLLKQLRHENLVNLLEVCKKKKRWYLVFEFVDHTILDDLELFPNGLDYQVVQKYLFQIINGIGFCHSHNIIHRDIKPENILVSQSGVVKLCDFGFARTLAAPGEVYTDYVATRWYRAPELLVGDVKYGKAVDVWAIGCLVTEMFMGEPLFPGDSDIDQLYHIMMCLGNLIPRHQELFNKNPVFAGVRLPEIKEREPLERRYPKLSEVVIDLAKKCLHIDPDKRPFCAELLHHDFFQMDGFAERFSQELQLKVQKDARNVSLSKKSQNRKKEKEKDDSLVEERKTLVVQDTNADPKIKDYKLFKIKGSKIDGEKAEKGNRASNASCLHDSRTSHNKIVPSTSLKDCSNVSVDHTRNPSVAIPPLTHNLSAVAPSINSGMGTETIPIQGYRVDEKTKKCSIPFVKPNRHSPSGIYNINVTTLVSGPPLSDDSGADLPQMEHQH
Chain of SRSF protein kinase 1 (Homo sapiens) (Q96SB4 whole entry, the tested form may be a part): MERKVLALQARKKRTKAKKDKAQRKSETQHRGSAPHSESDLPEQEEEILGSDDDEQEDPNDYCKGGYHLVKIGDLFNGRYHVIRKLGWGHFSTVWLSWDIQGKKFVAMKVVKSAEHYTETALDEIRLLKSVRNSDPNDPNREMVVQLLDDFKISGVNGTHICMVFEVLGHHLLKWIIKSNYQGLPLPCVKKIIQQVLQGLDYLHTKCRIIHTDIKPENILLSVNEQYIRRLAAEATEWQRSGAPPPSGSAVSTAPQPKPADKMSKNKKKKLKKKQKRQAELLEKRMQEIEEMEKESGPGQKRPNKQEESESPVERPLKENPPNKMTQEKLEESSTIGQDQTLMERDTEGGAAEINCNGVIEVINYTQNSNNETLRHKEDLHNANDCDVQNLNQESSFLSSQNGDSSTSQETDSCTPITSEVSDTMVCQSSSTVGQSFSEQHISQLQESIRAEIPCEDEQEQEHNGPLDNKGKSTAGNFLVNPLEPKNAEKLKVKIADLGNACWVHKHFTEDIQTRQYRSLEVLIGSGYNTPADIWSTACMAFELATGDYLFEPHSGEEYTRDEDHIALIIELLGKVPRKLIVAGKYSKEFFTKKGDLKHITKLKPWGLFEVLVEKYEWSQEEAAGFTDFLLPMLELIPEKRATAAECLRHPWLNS
Chain of Receptor-type tyrosine-protein kinase FLT3 (Homo sapiens) (P36888 whole entry, the tested form may be a part): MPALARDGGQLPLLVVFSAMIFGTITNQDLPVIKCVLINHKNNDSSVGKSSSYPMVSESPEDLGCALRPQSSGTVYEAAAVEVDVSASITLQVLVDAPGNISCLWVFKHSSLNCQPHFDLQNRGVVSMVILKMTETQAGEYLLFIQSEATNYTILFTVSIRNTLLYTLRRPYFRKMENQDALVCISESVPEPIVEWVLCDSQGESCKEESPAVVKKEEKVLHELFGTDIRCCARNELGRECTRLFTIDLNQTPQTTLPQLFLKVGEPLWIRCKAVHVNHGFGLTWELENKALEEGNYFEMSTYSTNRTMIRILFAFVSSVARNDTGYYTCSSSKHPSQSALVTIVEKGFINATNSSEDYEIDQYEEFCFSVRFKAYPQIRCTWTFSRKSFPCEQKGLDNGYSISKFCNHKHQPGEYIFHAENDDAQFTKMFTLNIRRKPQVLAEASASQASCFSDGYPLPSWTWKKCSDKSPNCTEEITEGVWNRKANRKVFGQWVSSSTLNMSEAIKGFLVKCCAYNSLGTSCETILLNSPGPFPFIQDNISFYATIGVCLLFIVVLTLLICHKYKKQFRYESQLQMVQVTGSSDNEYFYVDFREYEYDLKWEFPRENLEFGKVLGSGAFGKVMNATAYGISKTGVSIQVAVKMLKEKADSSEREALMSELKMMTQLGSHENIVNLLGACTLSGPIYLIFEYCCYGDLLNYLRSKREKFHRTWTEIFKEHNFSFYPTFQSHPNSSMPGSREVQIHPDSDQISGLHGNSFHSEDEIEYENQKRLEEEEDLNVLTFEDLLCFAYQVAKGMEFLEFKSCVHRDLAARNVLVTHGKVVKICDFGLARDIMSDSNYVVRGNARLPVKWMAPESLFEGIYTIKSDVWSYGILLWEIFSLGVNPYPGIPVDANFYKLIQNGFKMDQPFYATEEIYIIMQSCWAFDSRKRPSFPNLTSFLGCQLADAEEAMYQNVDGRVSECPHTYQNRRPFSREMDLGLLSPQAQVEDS
Chain of Ribosomal protein S6 kinase alpha-3 (Homo sapiens) (P51812 whole entry, the tested form may be a part): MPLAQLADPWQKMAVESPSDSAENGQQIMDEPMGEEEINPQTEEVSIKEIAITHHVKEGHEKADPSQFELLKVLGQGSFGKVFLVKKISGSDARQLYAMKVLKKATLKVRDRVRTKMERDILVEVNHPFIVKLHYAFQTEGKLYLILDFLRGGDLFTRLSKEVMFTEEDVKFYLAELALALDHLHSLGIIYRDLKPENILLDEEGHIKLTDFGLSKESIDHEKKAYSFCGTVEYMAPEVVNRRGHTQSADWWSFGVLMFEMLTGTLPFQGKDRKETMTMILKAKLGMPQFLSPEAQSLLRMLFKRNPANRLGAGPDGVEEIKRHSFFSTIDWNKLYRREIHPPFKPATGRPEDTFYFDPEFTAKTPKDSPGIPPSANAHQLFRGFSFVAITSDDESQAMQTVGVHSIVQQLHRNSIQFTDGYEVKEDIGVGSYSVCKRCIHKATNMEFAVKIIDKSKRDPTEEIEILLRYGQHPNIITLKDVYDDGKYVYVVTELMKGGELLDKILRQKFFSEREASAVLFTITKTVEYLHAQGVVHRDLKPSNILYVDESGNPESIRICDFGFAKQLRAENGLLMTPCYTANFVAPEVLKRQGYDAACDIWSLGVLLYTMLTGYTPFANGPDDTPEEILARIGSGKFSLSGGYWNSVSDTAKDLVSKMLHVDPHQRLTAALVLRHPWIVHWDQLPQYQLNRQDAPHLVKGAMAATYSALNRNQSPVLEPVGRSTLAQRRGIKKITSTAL

Q: How did the Activity [1] turn out when CC(C)Nc1sc(C(=O)c2ccc(Cl)s2)c(N)c1C#N was run?
A: 91%

Q: And the Activity [2]?
A: 100%

Q: What about the Activity [3] of the same molecule?
A: 46%

Q: And the Activity [4]?
A: 94%

Q: What about the Activity [5] of the same molecule?
A: 98%

Q: And the Activity [6]?
A: 84%

Q: What about the Activity [7] of the same molecule?
A: 93%

Q: And the Activity [8]?
A: 99%

Q: And the Activity [9]?
A: 100%

Q: What about the Activity [10] of the same molecule?
A: 83%

Q: And the Activity [11]?
A: 100%

Q: And the Activity [12]?
A: 79%

Q: And the Activity [13]?
A: 100%

Q: What about the Activity [14] of the same molecule?
A: 80%

Q: And the Activity [15]?
A: 100%

Q: What about the Activity [16] of the same molecule?
A: 72%

Q: And the Activity [17]?
A: 87%

Q: What about the Activity [18] of the same molecule?
A: 68%

Q: And the Activity [19]?
A: 77%

Q: What about the Activity [20] of the same molecule?
A: 89%

Q: And the Activity [21]?
A: 100%

Q: And the Activity [22]?
A: 100%

Q: What about the Activity [23] of the same molecule?
A: 99%

Q: And the Activity [24]?
A: 100%
